According to US20240408216A1, “PROTEIN INHIBITOR OR DEGRADING AGENT, PHARMACEUTICAL COMPOSITION CONTAINING SAME AND PHARMACEUTICAL USE” (JING MEDICINE TECHNOLOGY (SHANGHAI) LTD., priority 2021, published 2024):

Assays:
A431 = assay: Cell proliferation IC50 assay (Cell Titer GLO), A431 cells; type: cell-based; settings: Homo sapiens, A-431; Table 6; A431, 72 h; read-out: A431 IC50
Description: (§1) IC50 of compounds in the present invention was determined by Cell Titer GLO reagent from Promega. The procedures are as follows:
(§2) Tumor cells were cultured in specified medium in an incubator at 37° C. and 5% CO2. The cells were passaged periodically. Cells at the logarithmic growth phase were collected for plating at a density of 2000-4000 cells/well. The next day, the compounds of the present invention were serially diluted and added to the cells, with DMSO being the negative control and the culture media without cells being the blank control. The plate was incubated in the incubator for 72 h. The cell viability assay was performed by adding the detection reagents to the cell culture media according to Cell Titer GLO reagent instructions and detecting luminescent signals on an EnVision microplate reader (PerkinElmer).
(§3) Inhibition of cell growth by the compounds of the present invention was plotted by Prism Graphpad software for statistically calculating the IC50 of the compound of the present invention.

BaF3 (EGFR WT) = assay: Cell proliferation IC50 assay (Cell Titer GLO), BaF3 WT cells; type: cell-based; settings: Mus musculus, Ba/F3 EGFR, Table 6, 10 ng/ml EGF, 72 h
Description: as §1, §2, §3

[1] = tested on: BaF3 (EGFR Del19/T790M/C797S); assay: Cell proliferation IC50 assay (Cell Titer GLO), BaF3 DTC cells; type: cell-based; settings: Mus musculus, Ba/F3 EGFR-Del19/T790M/C797S, Table 6, 72 h
Description: as §1, §2, §3

BaF3 (EGFR Del19/C797S) = target: T1, BaF3 (EGFR Del19/C797S) (Homo sapiens, UniProt P00533, C797S, cells depend on it, form not given); assay: Cell proliferation IC50 assay (Cell Titer GLO), BaF3 DC cells; type: cell-based, mouse; settings: Table 6, 72 h
T1 construct: BaF3 (EGFR Del19/C797S)|DC|RPMI1640 + 10% FBS
Description: as §1, §2, §3

[2] = tested on: BaF3 (EGFR L858R/T790M/C797S); assay: Cell proliferation IC50 assay (Cell Titer GLO), BaF3 LTC cells; type: cell-based; settings: Mus musculus, Ba/F3 EGFR, Table 6, 72 h
Description: as §1, §2, §3

T1 sequence (P00533 with tags, fused parts or gaps DEL746-750/C797S, form open): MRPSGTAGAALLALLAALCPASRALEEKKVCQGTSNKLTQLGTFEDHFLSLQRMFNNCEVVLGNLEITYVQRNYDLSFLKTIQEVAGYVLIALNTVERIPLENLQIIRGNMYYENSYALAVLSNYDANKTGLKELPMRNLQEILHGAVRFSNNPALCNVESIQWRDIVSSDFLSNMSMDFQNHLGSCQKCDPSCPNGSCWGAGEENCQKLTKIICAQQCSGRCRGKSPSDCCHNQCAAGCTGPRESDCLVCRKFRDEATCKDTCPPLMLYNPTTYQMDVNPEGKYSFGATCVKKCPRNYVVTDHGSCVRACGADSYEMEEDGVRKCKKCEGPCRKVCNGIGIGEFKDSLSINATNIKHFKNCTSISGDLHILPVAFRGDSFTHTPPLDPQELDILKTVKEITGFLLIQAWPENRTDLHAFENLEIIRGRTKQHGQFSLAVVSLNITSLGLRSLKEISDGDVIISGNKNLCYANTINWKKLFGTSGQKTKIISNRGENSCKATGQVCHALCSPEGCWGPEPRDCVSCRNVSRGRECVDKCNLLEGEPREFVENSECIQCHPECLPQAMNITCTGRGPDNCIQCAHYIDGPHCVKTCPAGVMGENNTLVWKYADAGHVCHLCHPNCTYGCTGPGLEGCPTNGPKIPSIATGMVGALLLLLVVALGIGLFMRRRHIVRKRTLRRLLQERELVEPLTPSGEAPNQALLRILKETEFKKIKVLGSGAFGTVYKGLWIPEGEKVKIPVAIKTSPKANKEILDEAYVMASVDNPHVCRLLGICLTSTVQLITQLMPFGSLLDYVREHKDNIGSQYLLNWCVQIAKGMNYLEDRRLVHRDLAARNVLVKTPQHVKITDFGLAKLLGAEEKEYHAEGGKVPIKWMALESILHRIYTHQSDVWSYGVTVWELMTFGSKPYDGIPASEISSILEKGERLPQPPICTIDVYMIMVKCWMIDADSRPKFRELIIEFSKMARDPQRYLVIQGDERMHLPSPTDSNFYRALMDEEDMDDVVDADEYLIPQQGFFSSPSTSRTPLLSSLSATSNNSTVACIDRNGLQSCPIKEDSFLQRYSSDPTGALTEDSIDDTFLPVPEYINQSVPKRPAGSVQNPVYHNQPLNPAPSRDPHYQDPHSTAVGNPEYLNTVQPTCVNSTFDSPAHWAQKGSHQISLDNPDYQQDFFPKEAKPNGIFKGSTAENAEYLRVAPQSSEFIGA

SMILES | IC50 (A431) | IC50 (BaF3 (EGFR WT)) | IC50 [1] | IC50 (BaF3 (EGFR Del19/C797S)) | IC50 [2]
COc1cc(N2CCC(N3CCN(CCCCOc4cccc5c4CN(C4CCC(=O)NC4=O)C5=O)CC3)CC2)c(C2CC2)cc1Nc1ncc(Cl)c(Nc2ccccc2P(C)(C)=O)n1 (stereo not drawn) [Example E35] | 1640 nM | 2500 nM | 5.59 nM | 8.9 nM | 25.7 nM
COc1cc(N2CCC(N3CCC4(CCC(=Cc5cccc6c5CN(C5CCC(=O)NC5=O)C6=O)CC4)C3)CC2)c(C2CC2)cc1Nc1ncc(Cl)c(Nc2ccccc2P(C)(C)=O)n1 (stereo not drawn) [Example E36] | 1130 nM | 541 nM | 9.49 nM | 3.1 nM | 24.7 nM
CCc1cc(Nc2ncc(Cl)c(Nc3ccccc3P(C)(C)=O)n2)c(OC)cc1N1CCC(N2CCN(CC/C=C\c3cccc4c3CN(C3CCC(=O)NC3=O)C4=O)CC2)CC1 (stereo not drawn) [Example E37] | 1210 nM | 1070 nM | 4.84 nM | 3.1 nM | 15.3 nM
CCc1cc(Nc2ncc(Cl)c(Nc3ccccc3P(C)(C)=O)n2)c(OC)cc1N1CCC(N2CCN(CCCCCc3ccc4c(c3)CN(C3CCC(=O)NC3=O)C4=O)CC2)CC1 (stereo not drawn) [Example E38] | 1020 nM | 461 nM | 6.23 nM | 3.4 nM | 16.5 nM
CCc1cc(Nc2ncc(Cl)c(Nc3ccccc3P(C)(C)=O)n2)c(Cl)cc1N1CCC(N2CCN(CCC#Cc3cccc4c3CN(C3CCC(=O)NC3=O)C4=O)CC2)CC1 (stereo not drawn) [Example E46] | 1610 nM | 1200 nM | 10.1 nM | 9.2 nM | 17.7 nM
CCc1cc(Nc2ncc(Cl)c(Nc3ccccc3P(C)(C)=O)n2)c(OC)cc1N1CCC(N2CCN(C(=O)CCC#Cc3cccc4c3CN(C3CCC(=O)NC3=O)C4=O)CC2)CC1 (stereo not drawn) [Example E50] | 1350 nM | 1260 nM | 21.9 nM | 12.6 nM | 58.1 nM
CCc1cc(Nc2ncc(Cl)c(Nc3ccccc3P(C)(C)=O)n2)c(OC)cc1N1CCC(N2CCN(C3(CC#Cc4cccc5c4CN(C4CCC(=O)NC4=O)C5=O)CC3)CC2)CC1 (stereo not drawn) [Example E57] | > 4000 nM | > 4000 nM | 72.5 nM | 22.1 nM | 456 nM
COc1cc(N2CCC(N3CCN(CCC#Cc4cccc5c4CN(C4CCC(=O)NC4=O)C5=O)CC3)CC2)c(C(N)=O)cc1Nc1ncc(Cl)c(Nc2ccccc2P(C)(C)=O)n1 (stereo not drawn) [Example E61] | > 4000 nM | > 4000 nM | 280 nM | 37.8 nM | 621 nM
CCc1cc(Nc2ncc(Cl)c(Nc3ccc(C)c(C)c3P(C)(C)=O)n2)c(OC)cc1N1CCC(N2CCN(CCCCOc3cccc4c3CN(C3CCC(=O)NC3=O)C4=O)CC2)CC1 (stereo not drawn) [Example E63] | 1150 nM | 659 nM | 7.31 nM | 2.6 nM | 49.3 nM
CCc1cc(Nc2ncc(Cl)c(Nc3ccccc3P(C)(C)=O)n2)c(OC)cc1N1CCC(N2CCN(CCCCCc3ccc4c(N5CCC(=O)NC5=O)nn(C)c4c3)CC2)CC1 [Example E65] | 1060 nM | 1730 nM | 35.3 nM | 15.8 nM | 267 nM
CCc1cc(Nc2ncc(Cl)c(Nc3ccccc3P(C)(C)=O)n2)c(OC)cc1N1CCC(N2CCN([C@H]3C[C@@H](Oc4cc5c(cc4F)C(=O)N(C4CCC(=O)NC4=O)C5)C3)CC2)CC1 (stereo partly drawn) [Example E67] | 2490 nM | 306 nM | 4.09 nM | 4.4 nM | 20.6 nM
CCc1cc(Nc2ncc(-c3cnn(C)c3)c(Nc3ccccc3P(C)(C)=O)n2)c(OC)cc1N1CCC(N2CCN([C@H]3C[C@@H](Oc4cccc5c4CN(C4CCC(=O)NC4=O)C5=O)C3)CC2)CC1 (stereo partly drawn) [Example E69] | 344 nM | 168 nM | 15.3 nM | 0.7 nM | 114 nM
